According to US6821980B1, “Substituted 5-benzyl-2,4-diaminopyrimidines” (Basilea Pharmaceutica AG, priority 1999, dated 2004):
In brackets after ≈: the same amount, converted by molar mass. Where two headings read alike, the source gives them in different places.

Tests used:
[1] = test system: Streptococcus pneumoniae 1/1; experiment: MIC against Streptococcus pneumoniae 1/1; type: cell-based; conditions: Table 2, Streptococcus pneumoniae 1/1, trimethoprim- and penicillin-resistant, serotype 6, clinical isolate; for MIC: read-out: MIC Sp1/1
[2] = test system: Staphylococcus aureus 101; experiment: MIC against Staphylococcus aureus 101; type: cell-based; conditions: Table 2, Staphylococcus aureus 101, MRSA- and trimethoprim-resistant, clinical isolate; for MIC: read-out: MIC Sa101
[3] = target: T1, purified DHFR of strain Sp1/1 of Streptococcus pneumoniae (Streptococcus pneumoniae serotype 4, UniProt Q54801); type: biochemical; conditions: Table 2; IC50 against purified DHFR of strain Sp1/1
T1 sequence (Q54801 1-168 I100L): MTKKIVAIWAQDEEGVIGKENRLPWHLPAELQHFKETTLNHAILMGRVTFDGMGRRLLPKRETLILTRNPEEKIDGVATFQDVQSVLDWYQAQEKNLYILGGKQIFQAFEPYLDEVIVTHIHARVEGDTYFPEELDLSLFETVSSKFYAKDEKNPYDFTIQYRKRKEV

[4] = target: purified DHFR of strain 157/4696 of Staphylococcus aureus (Staphylococcus aureus, UniProt P13955); experiment: biochemical
Sequence of purified DHFR of strain 157/4696 of Staphylococcus aureus (P13955 whole entry): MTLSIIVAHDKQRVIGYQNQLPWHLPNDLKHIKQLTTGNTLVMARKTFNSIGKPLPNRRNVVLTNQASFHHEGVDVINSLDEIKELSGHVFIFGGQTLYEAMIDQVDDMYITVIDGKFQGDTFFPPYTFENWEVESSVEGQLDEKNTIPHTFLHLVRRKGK

| SMILES | MIC [1] | MIC [2] | IC50 [3] | IC50 [4] | MIC Sp1/1 [1] | MIC Sa101 [2] | IC50 ([4]; Table 2, IC50 against purified DHFR of strain 157/4696 (highly trimethoprim-resistant; clinical isolate), read-out: DHFR Sa1) |
| --- | --- | --- | --- | --- | --- | --- | --- |
| CCOc1cc(Cc2cnc(N)nc2N)cc(OS(=O)(=O)CC(C)C)c1-c1ccc(N)cc1 [Example 36-c, 2-Methyl-propane-1-sulphonic acid 4′-amino-4-(2,4-diamino-pyrimidin-5-ylmethyl)-6-ethoxy-biphenyl-2-yl ester] | 0.5 µg/mL (≈ 1.06 µM) | 2 µg/mL (≈ 4.24 µM) | 4.8 nM | 240 nM | – | – | – |
| CCOc1cc(Cc2cnc(N)nc2N)cc(OC2CCC2)c1-c1ccc2c(c1)OCO2 [Example 10-e, 5-(4-Benzo[1.31]dioxol-5-yl-3-cyclobutoxy-5-ethoxy-benzyl)-pyrmidine-2,4-diamine] | 8 µg/mL (≈ 18.4 µM) | 8 µg/mL (≈ 18.4 µM) | 50 nM | 1800 nM | – | – | – |
| CCOc1cc(Cc2cnc(N)nc2N)cc(OS(=O)(=O)N(C)C)c1-c1ccc2[nH]ccc2c1 [Example 43-d, Dimethylsulphamic acid 5-(2,4-diamino-pyrimidin-5-ylmethyl)-3-ethoxy-2-(1H-indol-5-yl)-phenyl ester] | 1 µg/mL (≈ 2.07 µM) | 1 µg/mL (≈ 2.07 µM) | 42 nM | 180 nM | – | – | – |
| CCOc1cc(Cc2cnc(N)nc2N)cc(OS(=O)(=O)N2CCCCC2)c1-c1cccc(N)c1 [Example 19-b, Piperidine-1-sulphonic acid 3′-amino-4-(2,4-diamino-pyrimidin-5-ylmethyl)-6-ethoxy-biphenyl-2-yl ester] | 0.5 µg/mL (≈ 1 µM) | 1 µg/mL (≈ 2.01 µM) | 2.4 nM | 130 nM | – | – | – |
| CCOc1cc(Cc2cnc(N)nc2N)cc(OS(=O)(=O)C(C)C)c1-c1ccc(O)cc1 [Example 15-c, Propane-2-sulphonic acid 4-(2,4-diamino-pyrimidin-5-ylmethyl)-6-ethoxy-4′-hydroxy-biphenyl-2-yl ester] | 1 µg/mL (≈ 2.18 µM) | 1 µg/mL (≈ 2.18 µM) | 12 nM | 64 nM | – | – | – |
| CCOc1cc(Cc2cnc(N)nc2N)cc(OS(=O)(=O)C2CCOCC2)c1-c1ccc(N)c(F)c1 [Example 41-b, Tetrahydronyran-4-sulphonic acid 4′-amino-4-(2,4-diamino-pyrimidin-5-ylmethyl)-6-ethoxy-3′-fluoro-biphenyl-2-yl ester] | 0.5 µg/mL (≈ 0.966 µM) | 4 µg/mL (≈ 7.73 µM) | 6.2 nM | 250 nM | – | – | – |
| CCOc1cc(Cc2cnc(N)nc2N)cc(OS(=O)(=O)N(C)CC)c1-c1ccc(O)cc1 [Example 20-g, N-Ethyl-N-methyl-sulphamic acid 4-(2,4-diamino-pyrimidin-5-ylmethyl)-6-ethoxy-4′-hydroxy-biphenyl-2-yl ester] | 1 µg/mL (≈ 2.11 µM) | 2 µg/mL (≈ 4.22 µM) | 7.2 nM | 160 nM | – | – | – |
| CCOc1cc(Cc2cnc(N)nc2N)cc(OCC2CC2)c1-c1ccc(N)cc1 [Example 13-, 5-(4′-Amino-2-cyclopropylmethoxy-6-ethoxy-biphenyl-4-ylmethyl)-pyrimidine-2,4-diamine] | 2 µg/mL (≈ 4.93 µM) | 8 µg/mL (≈ 19.7 µM) | 16 nM | 1400 nM | – | – | – |
| CCOc1cc(Cc2cnc(N)nc2N)cc(OCC(C)(C)COC)c1-c1ccc(OC)cc1 [Example 09-a, 5-[6-Ethoxy-4′-methoxy-2-(3-methoxy-2,2-dimethyl-propoxy)-biphenyl-4-ylmethyl]-pyrimidine-2,4-diamine] | 4 µg/mL (≈ 8.57 µM) | 8 µg/mL (≈ 17.1 µM) | 90 nM | 3100 nM | – | – | – |
| CCOc1cc(Cc2cnc(N)nc2N)cc(OS(=O)(=O)C2CCOCC2)c1-c1cccc(N)c1 [Example 41-c, Tetrahydropyran-4-sulphonic acid 3′-amino-4-(2,4-diamino-pyrimidin-5-ylmethyl)-6-ethoxy-biphenyl-2-yl ester] | 0.5 µg/mL (≈ 1 µM) | 4 µg/mL (≈ 8.01 µM) | 4.2 nM | 43 nM | – | – | – |
| CCOc1cc(Cc2cnc(N)nc2N)cc(OCC)c1-c1ccc(NC(=O)CN2CCOCC2)cc1 [Example 04-g, N-[4′-(2,4-Diamino-pyrimidin-5-ylmethyl)-2′,6′-diethoxy-biphenyl-4-yl]-2-morpholin-4-yl-acetamide] | 4 µg/mL (≈ 7.9 µM) | 8 µg/mL (≈ 15.8 µM) | 40 nM | 1100 nM | – | – | – |
| CCOc1cc(Cc2cnc(N)nc2N)cc(OS(=O)(=O)CC(C)C)c1-c1ccc(OCCOC)cc1 [Example 63-, 2-Methyl-propane-1-sulphonic acid 4-(2,4-diamino-pyrimidin-5-ylmethyA)-6-ethoxy-4′-(2-methox-ethoxy)-biphenyl-2-yl ester] | 1 µg/mL (≈ 1.88 µM) | 4 µg/mL (≈ 7.54 µM) | 1.8 nM | 380 nM | – | – | – |
| CCOc1cc(Cc2cnc(N)nc2N)cc(OCC)c1-c1ccc(NC)cc1 [Example 04-ab, 5-(2,6-Diethoxy-4′-methylamino-biphenyl-4-ylmethyl)-pyrimidine-2,4-diamine] | 4 µg/mL (≈ 10.2 µM) | 8 µg/mL (≈ 20.3 µM) | 120 nM | 1400 nM | – | – | – |
| CCOc1cc(Cc2cnc(N)nc2N)cc(OS(=O)(=O)N(CC)CC)c1-c1ccc(N)cc1 [Example 22-f, Diethylsulphamic acid 4′-amino-4-(2,4-diamino-pyrimidin-5-ylmethyl)-6-ethoxy-biphenyl-2-yl ester] | 1 µg/mL (≈ 2.06 µM) | 2 µg/mL (≈ 4.11 µM) | 14 nM | 150 nM | – | – | – |
| CCCS(=O)(=O)Oc1cc(Cc2cnc(N)nc2N)cc(OCC)c1-c1cccc(N)c1 [Example 14-d] | 1 µg/mL (≈ 2.19 µM) | 2 µg/mL (≈ 4.37 µM) | 16 nM | 82 nM | – | – | – |
| CCOc1cc(Cc2cnc(N)nc2N)cc(OS(=O)(=O)C(C)C)c1-c1ccc(CN(C)C)c(N)c1 [Example 33-f, Propane-2-sulphonic acid 3′-amino-4-(2,4-diamino-pyrimidin-5-ylmethyl)-6-ethoxy-4′-dimethylaminomethyl-biphenyl-2-yl ester] | 8 µg/mL (≈ 15.5 µM) | 2 µg/mL (≈ 3.89 µM) | 89 nM | 42 nM | – | – | – |
| CCOc1cc(Cc2cnc(N)nc2N)cc(OS(=O)(=O)CC(C)(C)OC)c1-c1ccc(N)c(F)c1 [Example 39-c, (2-Methoxg-2-methyl-propane)-1-sulphonic acid 4′-amino-4-(2,4-diamino-pyrimidin-5-ylmethyl)-6-ethoxy-3′-fluoro-4-ylmethyl-biphenyl-2-yl ester] | – | – | 14 nM | – | 1 µg/mL (≈ 1.92 µM) | 8 µg/mL (≈ 15.4 µM) | 1000 nM |
| CCOc1cc(Cc2cnc(N)nc2N)cc(OCCc2scnc2C)c1-c1ccc(O)cc1 [Example 08-q, 4′-(2,4-Diamino-pyrimidin-5-ylmethyl)-6′-ethoxy-2′-[2-(4-methyl-thiazol-5-yl)-ethoxy]-biphenyl-4-ol] | 8 µg/mL (≈ 16.8 µM) | 8 µg/mL (≈ 16.8 µM) | 28 nM | 1400 nM | – | – | – |
| CCOc1cc(Cc2cnc(N)nc2N)cc(OS(=O)(=O)c2cccs2)c1-c1cccc(N)c1 [Example 14-f, Thiophene-2-sulphonic acid 3′-amino-4-(2,4-diamino-pyrimidin-5-ylmethyl)-6-ethoxy-biphenyl-2-yl ester] | 1 µg/mL (≈ 2.01 µM) | 4 µg/mL (≈ 8.04 µM) | 1.8 nM | 320 nM | – | – | – |
| CCOc1cc(Cc2cnc(N)nc2N)cc(OS(=O)(=O)CC(C)C)c1-c1ccc(OCCO)cc1 [Example 61-a, 2-Methyl-propane-1-sulphonic acid 4-(2,4-diamino-pyrimidin-5-ylmethyl)-6-ethoxy-4′-(2-hydroxy-ethoxy)-biphenyl-2-yl ester] | 0.5 µg/mL (≈ 0.968 µM) | 2 µg/mL (≈ 3.87 µM) | 1.8 nM | 550 nM | – | – | – |
| CCOc1cc(Cc2cnc(N)nc2N)cc(OS(=O)(=O)N(C)C)c1-c1ccc(SC)cc1 [Example 43-a, Dimethylsulphamic acid 4-(2,4-diamino-pyrimidin-5-ylmethyl)-6-ethoxy-4′-methylsulphanyl-biphenyl-2-yl ester] | 4 µg/mL (≈ 8.17 µM) | 2 µg/mL (≈ 4.08 µM) | 6.7 nM | 320 nM | – | – | – |
| CCOc1cc(Cc2cnc(N)nc2N)cc(OCC2CC2)c1-c1cccc(O)c1 [Example 54-, 2′-Cyclopropanomethoxy-4′-(2,4-diamino-pyrimidin-5-ylmethyl)-6′-ethoxy-biphenyl-3-ol] | 2 µg/mL (≈ 4.92 µM) | 8 µg/mL (≈ 19.7 µM) | 19 nM | 3100 nM | – | – | – |
| CCOc1cc(Cc2cnc(N)nc2N)cc(OCC)c1-c1ccc(CN2CCC(=O)N2)cc1 [Example 04-w, 1-[4′-(2,4-Diamino-pyrimidin-5-lmethyl)-2′,6′-diethoxy-biphenyl-4-ylmethyl]-pyrazolidin-3-one] | 8 µg/mL (≈ 17.3 µM) | 8 µg/mL (≈ 17.3 µM) | 82 nM | 1200 nM | – | – | – |
| CCOc1cc(Cc2cnc(N)nc2N)cc(OCC)c1-c1cccc(O)c1 [Example 05-d, 4′-(2,4-Diamino-pyrimidin-5-ylmethyl)-2′,6′-diethoxy-biphenyl-3-ol] | 2 µg/mL (≈ 5.26 µM) | 4 µg/mL (≈ 10.5 µM) | 70 nM | 3100 nM | – | – | – |
| CCOc1cc(Cc2cnc(N)nc2N)cc(OS(=O)(=O)N(C)C)c1-c1ccc(CN2CCOCC2)c(F)c1 [Example 64-b, Dimethylsulphamic acid 4-(2,4-diamino-pyrimidin-5-ylmethUl)-6-ethoxy-3′-fluoro-4′-morpholin-4-ylmethyl-biphenyl-2-yl ester] | 2 µg/mL (≈ 3.57 µM) | 2 µg/mL (≈ 3.57 µM) | 27 nM | 300 nM | – | – | – |
| CCOc1cc(Cc2cnc(N)nc2N)cc(OS(=O)(=O)c2ccc(OC)c(F)c2)c1-c1cccc(N)c1 [Example 14-e, 3-Fluoro-4-methoxy-benzenesulphonic acid 3′-amino-4-(2,4-diamino-pyrimidin-5-ylmethyl)-6-ethoxy-biphenyl-2-yl ester] | 1 µg/mL (≈ 1.85 µM) | 8 µg/mL (≈ 14.8 µM) | 12 nM | 410 nM | – | – | – |
